Source: US20260191838A1, “COMBINATIONS COMPRISING A MENIN-MLL INHIBITOR AND A BCL-2 INHIBITOR” (JANSSEN PHARMACEUTICA NV, priority 2022, published 2026)

How the values were obtained:
[1] = test system: MV4-11 cells; experiment: In vitro proliferation (Cell Titer Glo), Compound 51 with decitabine and venetoclax, MV4-11; assay type: cell-based, human; parameters: key to Synergy/antagonism call (maxR test): no asterisk: absence of any asterisk indicates an additive effect; antagonism is indicated by “*”; synergy is indicated by “**”; Effect size (BIGL, HSA null model): scale not given here
Protocol: (§1) 3a) In Vitro Proliferation—Menin-MLL Inhibitor in Combination with a DNA Hypomethylating Agent (Decitabine) and a BCL2 Inhibitor (Venetoclax)
(§2) The effect of Compound 51 in combination with decitabine and venetoclax was determined in proliferation assays.
(§3) AML cell lines MOLM-13, OCI-AML3 and MV4-11 were purchased from DSMZ. MOLM-13 were grown in RPMI medium supplemented with 10% Fetal Bovine Serum (FBS) and 1% penicillin/streptomycin. MV4-11 cells were grown in IMDM medium supplemented with 10% FBS and 1% penicillin/streptomycin. OCI-AML3 cells were cultured in 80-90% alpha-MEM (without ribo- and deoxyribonucleosides)+10-20% FBS. All cell lines were cultured at 37° C. in 5% CO2 atmosphere.
(§4) AML cell lines (10×10^3 cells/well) were seeded in 96-well plates and grown for 6 days in serum (10%)-containing medium in the presence or absence of inhibitors at the indicated concentrations. Proliferation was analyzed by means of a Cell Titer Glo assay using the CellTiter 96 Aqueous One Solution Cell Proliferation Assay (Promega, Madison, WI, USA), according to the manufacturer's instructions. Data are mean with standard deviation from two to four independent experiments in technical triplicates.
(§5) R-based Biochemically Intuitive Generalized Loewe (BIGL) model implemented with a highest single agent (HSA) null model. Specifically, the BIGL methodology was applied to calculate drug-drug interactions (Van der Borght, K., Tourny, A., Bagdziunas, R. et al. BIGL: Biochemically Intuitive Generalized Loewe null model for prediction of the expected combined effect compatible with partial agonism and antagonism. Sci Rep 7, 17935 (2017); Thas, O., Tourny, A., Verbist, B., Hawinkel, S., Nazarov, M., Mutambanengwe, K., & Bijnens, L. Statistical detection of synergy: new methods and a comparative study. Pharmaceutical Statistics (2021)).
(§6) Synergy matrix results of the BIGL analysis of the cell line data with HSA as mean model calculated on the basis of the cellular metabolic activity using Cell Titer-Glo assay. Bootstrap confidence intervals are indicated. Effect sizes and their confidence intervals are shown. […] No significant average effect if zero is included in the interval.

[2] = test system: OCI-AML3 cells; experiment: In vitro proliferation (Cell Titer Glo), Compound 51 with decitabine and venetoclax, OCI-AML3; assay type: cell-based, human; parameters: Effect size (BIGL, HSA null model): scale not given here
Protocol: as §1, §2, §3, §4, §5, §6

[3] = Compound 51 0.001 μM, Decitabine 0.0015 μM, Venetoclax 0.0001 μM
[4] = Compound 51 0.001 μM, Decitabine 0.015 μM, Venetoclax 0.001 μM
[5] = Compound 51 0.001 μM, Decitabine 0.15 μM, Venetoclax 0.002 μM
[6] = Compound 51 0.001 μM, Decitabine 1.5 μM, Venetoclax 0.02 μM
[7] = Compound 51 0.001 μM, Decitabine 3 μM, Venetoclax 0.2 μM
[8] = Compound 51 0.01 μM, Decitabine 0.0015 μM, Venetoclax 0.0001 μM
[9] = Compound 51 0.01 μM, Decitabine 0.015 μM, Venetoclax 0.001 μM
[10] = Compound 51 0.01 μM, Decitabine 0.15 μM, Venetoclax 0.002 μM
[11] = Compound 51 0.01 μM, Decitabine 1.5 μM, Venetoclax 0.02 μM
[12] = Compound 51 0.01 μM, Decitabine 3 μM, Venetoclax 0.2 μM
[13] = Compound 51 0.05 μM, Decitabine 0.0015 μM, Venetoclax 0.0001 μM
[14] = Compound 51 0.05 μM, Decitabine 0.015 μM, Venetoclax 0.001 μM
[15] = Compound 51 0.05 μM, Decitabine 0.15 μM, Venetoclax 0.002 μM
[16] = Compound 51 0.05 μM, Decitabine 1.5 μM, Venetoclax 0.02 μM
[17] = Compound 51 0.05 μM, Decitabine 3 μM, Venetoclax 0.2 μM
[18] = Compound 51 0.1 μM, Decitabine 0.0015 μM, Venetoclax 0.0001 μM
[19] = Compound 51 0.1 μM, Decitabine 0.015 μM, Venetoclax 0.001 μM
[20] = Compound 51 0.1 μM, Decitabine 0.15 μM, Venetoclax 0.002 μM
[21] = Compound 51 0.1 μM, Decitabine 1.5 μM, Venetoclax 0.02 μM
[22] = Compound 51 0.1 μM, Decitabine 3 μM, Venetoclax 0.2 μM
[23] = Compound 51 0.5 μM, Decitabine 0.0015 μM, Venetoclax 0.0001 μM
[24] = Compound 51 0.5 μM, Decitabine 0.015 μM, Venetoclax 0.001 μM
[25] = Compound 51 0.5 μM, Decitabine 0.15 μM, Venetoclax 0.002 μM
[26] = Compound 51 0.5 μM, Decitabine 1.5 μM, Venetoclax 0.02 μM
[27] = Compound 51 0.5 μM, Decitabine 3 μM, Venetoclax 0.2 μM
[28] = Compound 51 1 μM, Decitabine 0.0015 μM, Venetoclax 0.0001 μM
[29] = Compound 51 1 μM, Decitabine 0.015 μM, Venetoclax 0.001 μM
[30] = Compound 51 1 μM, Decitabine 0.15 μM, Venetoclax 0.002 μM
[31] = Compound 51 1 μM, Decitabine 1.5 μM, Venetoclax 0.02 μM
[32] = Compound 51 1 μM, Decitabine 3 μM, Venetoclax 0.2 μM

CC(=O)N1CCC(CN2CC[C@@H](Cc3cn(-c4ccc(F)cc4C(=O)N(C)C(C)C)c4cncc(C)c34)C2)CC1 [Compound 51]
Effect size (BIGL, HSA null model) [1, 3]: −0.02
Effect size (BIGL, HSA null model) [1, 4]: −0.05
Effect size (BIGL, HSA null model) [1, 5]: −0.01
Effect size (BIGL, HSA null model) [1, 6]: −0.08
Effect size (BIGL, HSA null model) [1, 7]: −0.06
Effect size (BIGL, HSA null model) [1, 8]: −0.02
Effect size (BIGL, HSA null model) [1, 9]: 0.22
Synergy/antagonism call (maxR test) [1, 9]: **
Effect size (BIGL, HSA null model) [1, 10]: −0.26
Synergy/antagonism call (maxR test) [1, 10]: **
Effect size (BIGL, HSA null model) [1, 11]: −0.1
Synergy/antagonism call (maxR test) [1, 11]: **
Effect size (BIGL, HSA null model) [1, 12]: −0.06
Effect size (BIGL, HSA null model) [1, 13]: 0
Effect size (BIGL, HSA null model) [1, 14]: −0.17
Synergy/antagonism call (maxR test) [1, 14]: **
Effect size (BIGL, HSA null model) [1, 15]: −0.24
Synergy/antagonism call (maxR test) [1, 15]: **
Effect size (BIGL, HSA null model) [1, 16]: −0.1
Synergy/antagonism call (maxR test) [1, 16]: **
Effect size (BIGL, HSA null model) [1, 17]: −0.06
Effect size (BIGL, HSA null model) [1, 18]: 0.03
Effect size (BIGL, HSA null model) [1, 19]: −0.06
Effect size (BIGL, HSA null model) [1, 20]: −0.09
Synergy/antagonism call (maxR test) [1, 20]: **
Effect size (BIGL, HSA null model) [1, 21]: −0.3
Synergy/antagonism call (maxR test) [1, 21]: **
Effect size (BIGL, HSA null model) [1, 22]: −0.06
Effect size (BIGL, HSA null model) [1, 23]: 0
Effect size (BIGL, HSA null model) [1, 24]: −0.02
Effect size (BIGL, HSA null model) [1, 25]: −0.02
Effect size (BIGL, HSA null model) [1, 26]: −0.03
Effect size (BIGL, HSA null model) [1, 27]: −0.03
Effect size (BIGL, HSA null model) [1, 28]: −0.03
Effect size (BIGL, HSA null model) [1, 29]: −0.02
Effect size (BIGL, HSA null model) [1, 30]: −0.02
Effect size (BIGL, HSA null model) [1, 31]: −0.03
Effect size (BIGL, HSA null model) [1, 32]: −0.08
combination effect on proliferation (in words) ([1]; pairwise matrix of decitabine and Compound 51 in the presence of Venetoclax, MV4-11, 6-day CellTiter-Glo): synergistically cytotoxic
Effect size (BIGL, HSA null model) [2, 3]: −0.03
Effect size (BIGL, HSA null model) [2, 4]: −0.1
Effect size (BIGL, HSA null model) [2, 5]: −0.05
Effect size (BIGL, HSA null model) [2, 6]: 0
Effect size (BIGL, HSA null model) [2, 7]: 0
Effect size (BIGL, HSA null model) [2, 8]: −0.01
Effect size (BIGL, HSA null model) [2, 9]: −0.31
Effect size (BIGL, HSA null model) [2, 10]: −0.06
Effect size (BIGL, HSA null model) [2, 11]: −0.01
Effect size (BIGL, HSA null model) [2, 12]: 0
Effect size (BIGL, HSA null model) [2, 13]: 0.02
Effect size (BIGL, HSA null model) [2, 14]: 0.01
Effect size (BIGL, HSA null model) [2, 15]: −0.09
Effect size (BIGL, HSA null model) [2, 16]: −0.01
Effect size (BIGL, HSA null model) [2, 17]: 0
Effect size (BIGL, HSA null model) [2, 18]: 0.03
Effect size (BIGL, HSA null model) [2, 19]: 0.09
Effect size (BIGL, HSA null model) [2, 20]: −0.06
Effect size (BIGL, HSA null model) [2, 21]: −0.01
Effect size (BIGL, HSA null model) [2, 22]: 0
Effect size (BIGL, HSA null model) [2, 23]: 0.03
Effect size (BIGL, HSA null model) [2, 24]: 0.12
Effect size (BIGL, HSA null model) [2, 25]: 0.01
Effect size (BIGL, HSA null model) [2, 26]: −0.01
Effect size (BIGL, HSA null model) [2, 27]: 0
Effect size (BIGL, HSA null model) [2, 28]: 0.02
Effect size (BIGL, HSA null model) [2, 29]: 0.11
Effect size (BIGL, HSA null model) [2, 30]: 0
Effect size (BIGL, HSA null model) [2, 31]: 0
Effect size (BIGL, HSA null model) [2, 32]: 0.03
combination effect on proliferation (in words) ([2]; Compound 51 with Decitabine in the presence of Venetoclax, OCI-AML3 (NPM1c), 6-day CellTiter-Glo): not antagonistically cytotoxic
